Experimental data taken from patent US10745361B2, “Piperazine derivatives having multimodal activity against pain” (ESTEVE PHARMACEUTICALS, S.A., priority 2013, dated 2020).

System: human σ1 receptor and human μ-opioid receptor
Assay: Human σ1 receptor radioligand assay and human μ-opioid receptor radioligand assay (μ and σ1 dual binding)
Design: key to μ and σ1 dual binding: +: Both Ki-μ and Ki-σ1>=500 nM; ++: One K, <500 nM while the other K, is >=500 nM; +++: Both Ki-μ and Ki-σ1<500 nM; ++++: Both Ki-μ and Ki-σ1<100 nM
Conditions: one class for both Ki: σ1 ([3H](+)-pentazocine, transfected HEK-293 membranes) and μ-opioid ([3H]-DAMGO, transfected CHO-K1 membranes)
Protocol: Human σ1 Receptor Radioligand Assay
To investigate binding properties of σ1 receptor ligands to human σ1 receptor, transfected HEK-293 membranes and [^3H](+)-pentazocine (Perkin Elmer, NET-1056), as the radioligand, were used. The assay was carried out with 7 μg of membrane suspension, 5 nM of [^3H](+)-pentazocine in either absence or presence of either buffer or 10 μM Haloperidol for total and non-specific binding, respectively. Binding buffer contained Tris-HCl 50 mM at pH 8. Plates were incubated at 37° C. for 120 minutes. After the incubation period, the reaction mix was then transferred to MultiScreen HTS, FC plates (Millipore), filtered and plates were washed 3 times with ice-cold 10 mM Tris-HCL (pH7.4). Filters were dried and counted at approximately 40% efficiency in a MicroBeta scintillation counter (Perkin-Elmer) using EcoScint liquid scintillation cocktail
Human μ-Opioid Receptor Radioligand Assay
To investigate binding properties of p-opioid receptor ligands to human p-opioid receptor, transfected CHO-K1 cell membranes and [^3H]-DAMGO (Perkin Elmer, ES-542-C), as the radioligand, were used. The assay was carried out with 20 μg of membrane suspension, 1 nM of [^3H]-DAMGO in either absence or presence of either buffer or 10 μM Naloxone for total and non-specific binding, respectively. Binding buffer contained Tris-HCl 50 mM, MgCl2 5 mM at pH 7.4. Plates were incubated at 27° C. for 60 minutes. After the incubation period, the reaction mix was then transferred to MultiScreen HTS, FC plates (Millipore), filtered and plates were washed 3 times with ice-cold 10 mM Tris-HCL (pH 7.4). Filters were dried and counted at approximately 40% efficiency in a MicroBeta scintillation counter (Perkin-Elmer) using
EcoScint liquid scintillation cocktail.
The following scale as been adopted for representing the binding to the σ1 receptor and the μ-opiod receptor expressed as Ki: • + Both Ki-μ and Ki-σ1>=500 nM • ++ One K, <500 nM while the other K, is >=500 nM • +++ Both Ki-μ and Ki-σ1<500 nM • ++++ Both Ki-μ and Ki-σ1<100 nM

`CC(C)(C)NS(=O)(=O)c1cccc(N2CCN(Cc3cn(-c4ccccc4)nn3)CC2)c1` [Example 32, N-tert-butyl-3-(4-((1-phenyl-1H-1,2,3-triazol-4-yl)methyl)piperazin-1-yl)benzenesulfonamide] was tested. Which “μ and σ1 dual binding” value did it give?
The value was “++”.

`CS(=O)(=O)Nc1cccc(N2CCN(Cc3cnn(-c4ccccc4)c3)CC2)c1` [Example 33, N-(3-(4-((1-phenyl-1H-pyrazol-4-yl)methyl)piperazin-1-yl)phenyl)methanesulfonamide] was tested. Which Ki did it give?
Its Ki is less than 100 nM.

With `CS(=O)(=O)Nc1cccc(N2CCN(Cc3cnn(Cc4ccccc4)c3)CC2)c1` [Example 34, N-(3-(4-((1-benzyl-1H-pyrazol-4-yl)methyl)piperazin-1-yl)phenyl)methanesulfonamide] as the compound, how does the Ki read?
Its Ki is less than 500 nM.

With `CS(=O)(=O)Nc1cccc(N2CCN(Cc3cnn(Cc4ccccn4)c3)CC2)c1` [Example 35, N-(3-(4-((1-(pyridin-2-ylmethyl)-1H-pyrazol-4-yl)methyl)piperazin-1-yl)phenyl)methanesulfonamide] as the compound, how does the “μ and σ1 dual binding” value read?
The value was “++”.

`CC(C)S(=O)(=O)Nc1cccc(N2CCN(Cc3cnn(-c4ccccc4)c3)CC2)c1` [Example 36, N-(3-(4-((1-phenyl-1H-pyrazol-4-yl)methyl)piperazin-1-yl)phenyl)propane-2-sulfonamide] was tested. Which Ki did it give?
The Ki was less than 100 nM.

Which Ki does the source give for `Oc1cccc(N2CCN(Cc3cnn(-c4ccccc4)c3)CC2)c1` [Example 37, 3-(4-((1-phenyl-1H-pyrazol-4-yl)methyl)piperazin-1-yl)phenol] here?
Its Ki is less than 100 nM.

How did the Ki turn out when `CS(=O)(=O)Nc1cccc(N2CCN(Cc3cnn(-c4ccccn4)c3)CC2)c1` [Example 38, N-(3-(4-((1-(pyridin-2-yl)-1H-pyrazol-4-yl)methyl)piperazin-1-yl)phenyl)methanesulfonamide] was run?
Its Ki is less than 500 nM.

`CC(C)S(=O)(=O)Nc1cccc(N2CCN(Cc3cnn(-c4ccccn4)c3)CC2)c1` [Example 39, N-(3-(4-((1-(pyridin-2-yl)-1H-pyrazol-4-yl)methyl)piperazin-1-yl)phenyl)propane-2-sulfonamide] was tested. Which Ki did it give?
Its Ki is less than 100 nM.

Which Ki does the source give for `CC(C)S(=O)(=O)Nc1cccc(N2CCN(Cc3cn(Cc4ccccc4)cn3)CC2)c1` [Example 40, N-(3-(4-((1-benzyl-1H-imidazol-4-yl)methyl)piperazin-1-yl)phenyl)propane-2-sulfonamide] here?
Its Ki is less than 500 nM.

With `CS(=O)(=O)Nc1cccc(N2CCN(Cc3cn(-c4ccccc4)nn3)CC2)n1` [Example 41, N-(6-(4-((1-phenyl-1H-1,2,3-triazol-4-yl)methyl)piperazin-1-yl)pyridin-2-yl)methanesulfonamide] as the compound, how does the “μ and σ1 dual binding” value read?
Its value is “++”.

For `CC(C)S(=O)(=O)Nc1cccc(N2CCN(Cc3cn(-c4ccccc4)nn3)CC2)n1` [Example 42, N-(6-(4-((1-phenyl-1H-1,2,3-triazol-4-yl)methyl)piperazin-1-yl)pyridin-2-yl)propane-2-sulfonamide], which Ki is on record?
Its Ki is less than 500 nM.

`CC(C)S(=O)(=O)Nc1cccc(N2CCN(Cc3cn(-c4ccccc4F)nn3)CC2)n1` [Example 43, N-(6-(4-((1-(2-fluorophenyl)-1H-1,2,3-triazol-4-yl)methyl)piperazin-1-yl)pyridin-2-yl)propane-2-sulfonamide] was tested. Which “μ and σ1 dual binding” value did it give?
Its value is “++”.

Which Ki does the source give for `O=S(=O)(Nc1cccc(N2CCN(Cc3cn(-c4ccccc4F)nn3)CC2)n1)C1CC1` [Example 44, N-(6-(4-((1-(2-fluorophenyl)-1H-1,2,3-triazol-4-yl)methyl)piperazin-1-yl)pyridin-2-yl)cyclopropanesulfonamide] here?
The Ki was less than 500 nM.

How did the “μ and σ1 dual binding” value turn out when `CCC(=O)Nc1cccc(N2CCN(Cc3cn(-c4ccccc4F)nn3)CC2)n1` [Example 45, N-(6-(4-((1-(2-fluorophenyl)-1H-1,2,3-triazol-4-yl)methyl)piperazin-1-yl)pyridin-2-yl)propionamide] was run?
Its value is “++”.

How did the “μ and σ1 dual binding” value turn out when `CC(C)S(=O)(=O)Nc1cccc(N2CCN(Cc3cn(-c4ccccc4O)nn3)CC2)n1` [Example 46, N-(6-(4-((1-(2-hydroxyphenyl)-1H-1,2,3-triazol-4-yl)methyl)piperazin-1-yl)pyridin-2-yl)propane-2-sulfonamide] was run?
Its value is “++”.

With `CC(C)S(=O)(=O)Nc1cccc(N2CCN(Cc3cnn(-c4ccccn4)c3)CC2)n1` [Example 47, N-(6-(4-((1-(pyridin-2-yl)-1H-pyrazol-4-yl)methyl)piperazin-1-yl)pyridin-2-yl)propane-2-sulfonamide] as the compound, how does the Ki read?
Its Ki is less than 500 nM.

How did the “μ and σ1 dual binding” value turn out when `CC(C)S(=O)(=O)Nc1cccc(N2CCN(Cc3cn(-c4c(F)cccc4F)nn3)CC2)n1` [Example 48, N-(6-(4-((1-(2,6-difluorophenyl)-1H-1,2,3-triazol-4-yl)methyl)piperazin-1-yl)pyridin-2-yl)propane-2-sulfonamide] was run?
The value was “++”.

With `CC(C)S(=O)(=O)Nc1cccc(N2CCN(Cc3cn(-c4ccc(F)c(F)c4)nn3)CC2)n1` [Example 49, N-(6-(4-((1-(3,4-difluorophenyl)-1H-1,2,3-triazol-4-yl)methyl)piperazin-1-yl)pyridin-2-yl)propane-2-sulfonamide] as the compound, how does the “μ and σ1 dual binding” value read?
Its value is “++”.

`CC(C)S(=O)(=O)Nc1cccc(N2CCN(Cc3cn(-c4ccc(Cl)cc4F)nn3)CC2)n1` [Example 50, N-(6-(4-((1-(4-chloro-2-fluorophenyl)-1H-1,2,3-triazol-4-yl)methyl)piperazin-1-yl)pyridin-2-yl)propane-2-sulfonamide] was tested. Which “μ and σ1 dual binding” value did it give?
The value was “++”.

`O=S(=O)(Nc1cccc(N2CCN(Cc3cn(-c4ccccc4)nn3)CC2)n1)C1CC1` [Example 51, N-(6-(4-((1-phenyl-1H-1,2,3-triazol-4-yl)methyl)piperazin-1-yl)pyridin-2-yl)cyclopropanesulfonamide] was tested. Which Ki did it give?
Its Ki is less than 500 nM.

With `CC(C)S(=O)(=O)Nc1ccc(Cl)c(N2CCN(Cc3cn(-c4ccccc4)nn3)CC2)n1` [Example 52, N-(5-chloro-6-(4-((1-phenyl-1H-1,2,3-triazol-4-yl)methyl)piperazin-1-yl)pyridin-2-yl)propane-2-sulfonamide] as the compound, how does the Ki read?
The Ki was less than 500 nM.

How did the Ki turn out when `CC(C)S(=O)(=O)Nc1cccc(N2CC3CN(Cc4cn(-c5ccccc5)nn4)CC3C2)n1` (centres unmarked) [Example 53, N-(6-(5-((1-phenyl-1H-1,2,3-triazol-4-yl)methyl)hexahydropyrrolo[3,4-c]pyrrol-2(1H)-yl)pyridin-2-yl)propane-2-sulfonamide] was run?
The Ki was less than 500 nM.

`CC(C)S(=O)(=O)Nc1cccc(N2CC3CN(Cc4cn(Cc5ccccc5)nn4)CC3C2)n1` (centres unmarked) [Example 54, N-(6-(5-((1-benzyl-1H-1,2,3-triazol-4-yl)methyl)hexahydropyrrolo[3,4-c]pyrrol-2(1H)-yl)pyridin-2-yl)propane-2-sulfonamide] was tested. Which “μ and σ1 dual binding” value did it give?
Its value is “++”.

Which “μ and σ1 dual binding” value does the source give for `CC(C)S(=O)(=O)Nc1cccc(N2CC3CN(Cc4cn(Cc5ccccn5)nn4)CC3C2)n1` (centres unmarked) [Example 55, N-(6-(5-((1-(pyridin-2-ylmethyl)-1H-1,2,3-triazol-4-yl)methyl)hexahydropyrrolo[3,4-c]pyrrol-2(1H)-yl)pyridin-2-yl)propane-2-sulfonamide] here?
Its value is “++”.

With `COc1cncc(-n2cc(CN3CCN(c4cccc(NS(=O)(=O)C(C)C)n4)CC3)nn2)c1` [Example 56, N-(6-(4-((1-(5-methoxypyridin-3-yl)-1H-1,2,3-triazol-4-yl)methyl)piperazin-1-yl)pyridin-2-yl)propane-2-sulfonamide] as the compound, how does the “μ and σ1 dual binding” value read?
Its value is “++”.

Which Ki does the source give for `CC(C)S(=O)(=O)Nc1cccc(N2CCCN(Cc3cn(-c4ccccc4)nn3)CC2)n1` [Example 57, N-(6-(4-((1-phenyl-1H-1,2,3-triazol-4-yl)methyl)-1,4-diazepan-1-yl)pyridin-2-yl)propane-2-sulfonamide] here?
Its Ki is less than 100 nM.

How did the “μ and σ1 dual binding” value turn out when `CC(C)S(=O)(=O)Nc1cccc(N2CCN(Cc3cn(-c4ccc(Cl)cn4)nn3)CC2)n1` [Example 58, N-(6-(4-((1-(5-chloropyridin-2-yl)-1H-1,2,3-triazol-4-yl)methyl)piperazin-1-yl)pyridin-2-yl)propane-2-sulfonamide] was run?
Its value is “++”.

How did the “μ and σ1 dual binding” value turn out when `CC(C)S(=O)(=O)Nc1cccc(N2CCCN(Cc3cn(Cc4ccccn4)nn3)CC2)n1` [Example 59, N-(6-(4-((1-(pyridin-2-ylmethyl)-1H-1,2,3-triazol-4-yl)methyl)-1,4-diazepan-1-yl)pyridin-2-yl)propane-2-sulfonamide] was run?
Its value is “++”.

How did the Ki turn out when `CC(C)S(=O)(=O)Nc1cccc(N2CCCN(Cc3cn(-c4ccccc4F)nn3)CC2)n1` [Example 60, N-(6-(4-((1-(2-fluorophenyl)-1H-1,2,3-triazol-4-yl)methyl)-1,4-diazepan-1-yl)pyridin-2-yl)propane-2-sulfonamide] was run?
The Ki was less than 500 nM.
